{"source": "ChEMBL document CHEMBL3860101", "about": "“Targeting the Nerve Growth Factor (NGF) Pathway in Drug Discovery. Potential Applications to New Therapies for Chronic Pain” (J Med Chem, 2017)", "key": {"[1]": {"molecular_target": "T1, High affinity nerve growth factor receptor (Homo sapiens, UniProt P04629)", "assay": "Inhibition of His-tagged recombinant human TrkA using Alexa-Fluor tracer-236 incubated for 60 mins by TR-FRET based Lantha-screen Eu kinase binding assay"}, "[2]": {"molecular_target": "T1, High affinity nerve growth factor receptor", "assay": "Inhibition of NGF-stimulated TrkA phosphorylation in human U2OS cells by beta-galactosidase reporter gene based PathHunter profiling assay", "format": "cell-based"}, "[3]": {"molecular_target": "T2, BDNF/NT-3 growth factors receptor (Homo sapiens, UniProt Q16620)", "assay": "Inhibition of BDNF-stimulated TrkB phosphorylation in human U2OS cells by beta-galactosidase reporter gene based PathHunter profiling assay", "format": "cell-based"}, "[4]": {"molecular_target": "NT-3 growth factor receptor (Homo sapiens, UniProt Q16288)", "sequence (Q16288 whole entry)": "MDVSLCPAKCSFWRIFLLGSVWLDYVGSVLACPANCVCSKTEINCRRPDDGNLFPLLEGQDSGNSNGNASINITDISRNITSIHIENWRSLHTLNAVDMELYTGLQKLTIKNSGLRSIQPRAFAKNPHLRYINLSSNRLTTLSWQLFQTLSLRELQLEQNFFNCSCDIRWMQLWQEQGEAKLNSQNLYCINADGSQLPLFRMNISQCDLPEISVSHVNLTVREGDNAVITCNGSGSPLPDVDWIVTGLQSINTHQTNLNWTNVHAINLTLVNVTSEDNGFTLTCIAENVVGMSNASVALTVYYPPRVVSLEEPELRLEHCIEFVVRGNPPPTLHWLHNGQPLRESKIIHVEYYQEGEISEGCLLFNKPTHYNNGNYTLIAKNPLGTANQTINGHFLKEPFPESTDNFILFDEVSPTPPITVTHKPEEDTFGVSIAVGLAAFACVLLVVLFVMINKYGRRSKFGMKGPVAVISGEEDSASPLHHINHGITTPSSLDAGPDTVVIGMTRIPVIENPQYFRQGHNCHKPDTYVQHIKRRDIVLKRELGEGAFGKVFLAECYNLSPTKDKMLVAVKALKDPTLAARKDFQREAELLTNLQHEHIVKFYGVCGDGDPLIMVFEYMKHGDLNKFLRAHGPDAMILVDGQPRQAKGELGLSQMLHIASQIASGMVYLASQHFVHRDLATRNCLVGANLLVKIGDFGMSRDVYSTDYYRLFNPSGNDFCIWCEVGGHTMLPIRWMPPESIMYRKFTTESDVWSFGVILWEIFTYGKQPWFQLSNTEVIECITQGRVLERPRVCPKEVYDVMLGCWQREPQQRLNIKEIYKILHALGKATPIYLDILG", "assay": "Inhibition of NT3-stimulated TrkC phosphorylation in human U2OS cells by beta-galactosidase reporter gene based PathHunter profiling assay", "format": "cell-based"}, "[5]": {"molecular_target": "T2, BDNF/NT-3 growth factors receptor", "assay": "Inhibition of His6 tagged human recombinant TrkB (455 to end amino acids) expressed in Sf21 cells at 10 uM"}, "[6]": {"molecular_target": "T1, High affinity nerve growth factor receptor", "assay": "Inhibition of TrkA (unknown origin) by cell based assay"}, "[7]": {"molecular_target": "T3, High affinity nerve growth factor receptor (Rattus norvegicus, UniProt P35739)", "T3 sequence (P35739 whole entry)": "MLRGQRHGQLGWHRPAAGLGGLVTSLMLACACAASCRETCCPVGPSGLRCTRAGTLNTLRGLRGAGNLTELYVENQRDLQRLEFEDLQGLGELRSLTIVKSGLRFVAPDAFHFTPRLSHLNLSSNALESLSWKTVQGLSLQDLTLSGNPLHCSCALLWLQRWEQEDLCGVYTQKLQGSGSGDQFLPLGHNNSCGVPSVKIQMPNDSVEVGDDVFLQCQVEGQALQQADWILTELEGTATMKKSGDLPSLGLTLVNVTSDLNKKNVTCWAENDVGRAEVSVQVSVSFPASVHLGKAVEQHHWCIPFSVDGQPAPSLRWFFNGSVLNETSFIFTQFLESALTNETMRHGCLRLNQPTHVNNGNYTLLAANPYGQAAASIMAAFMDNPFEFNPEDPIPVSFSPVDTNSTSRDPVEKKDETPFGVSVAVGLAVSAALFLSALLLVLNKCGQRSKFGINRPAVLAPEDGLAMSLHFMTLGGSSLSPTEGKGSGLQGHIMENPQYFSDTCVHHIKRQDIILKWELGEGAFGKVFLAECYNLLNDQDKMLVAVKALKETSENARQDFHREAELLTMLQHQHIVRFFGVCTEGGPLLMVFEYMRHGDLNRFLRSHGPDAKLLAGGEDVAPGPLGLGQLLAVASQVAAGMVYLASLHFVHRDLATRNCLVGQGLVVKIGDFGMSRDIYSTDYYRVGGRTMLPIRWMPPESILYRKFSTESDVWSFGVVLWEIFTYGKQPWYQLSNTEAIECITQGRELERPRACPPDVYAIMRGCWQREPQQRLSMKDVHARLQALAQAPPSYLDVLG", "assay": "Inhibition of binding of [125I]-NGF to TrkA in rat PC12 cells incubated for 2 hrs by gamma counting method", "format": "cell-based, PC-12"}, "[8]": {"molecular_target": "T3, High affinity nerve growth factor receptor", "assay": "Inhibition of NGF-induced TrkA auto-phosphorylation in rat PC12 cells incubated for 15 mins by chemiluminescence based method", "format": "cell-based, PC-12"}, "[9]": {"system": "Rattus norvegicus", "assay": "Inhibition of mechanical allodynia ip dosed rat model of L5/L6 nerve ligation injury", "format": "functional"}, "[10]": {"system": "Rattus norvegicus", "assay": "Inhibition of mechanical allodynia in it dosed rat model of L5/L6 nerve ligation injury", "format": "functional"}, "[11]": {"system": "Rattus norvegicus", "assay": "Inhibition of thermal sensitization-induced tactile allodynia in it dosed rat model of L5/L6 nerve ligation injury", "format": "functional"}, "[12]": {"molecular_target": "T4, Tumor necrosis factor receptor superfamily member 16 (Homo sapiens, UniProt P08138)", "T4 sequence (P08138 whole entry)": "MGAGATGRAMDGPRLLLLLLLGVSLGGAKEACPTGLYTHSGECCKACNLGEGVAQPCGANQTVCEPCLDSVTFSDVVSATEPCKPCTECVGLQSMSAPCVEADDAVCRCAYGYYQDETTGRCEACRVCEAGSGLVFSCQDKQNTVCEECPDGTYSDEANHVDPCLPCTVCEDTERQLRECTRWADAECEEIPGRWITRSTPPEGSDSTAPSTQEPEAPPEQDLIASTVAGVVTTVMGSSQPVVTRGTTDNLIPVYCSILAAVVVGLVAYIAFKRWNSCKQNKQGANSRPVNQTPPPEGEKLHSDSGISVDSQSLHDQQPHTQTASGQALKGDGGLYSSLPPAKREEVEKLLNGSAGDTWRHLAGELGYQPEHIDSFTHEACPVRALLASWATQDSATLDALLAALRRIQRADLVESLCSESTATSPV", "assay": "Inhibition of mouse NGF binding to p75 (unknown origin) by SPR method"}, "[13]": {"molecular_target": "T5, Tumor necrosis factor receptor superfamily member 16 (Homo sapiens) (UniProt P08138)", "T5 sequence (whole entry)": "T4 sequence (P08138 whole entry)", "assay": "Inhibition of mouse NGF binding to p75 (unknown origin) by SPR method relative to control"}, "[14]": {"molecular_target": "Beta-nerve growth factor (Mus musculus, UniProt P01139)", "sequence (P01139 whole entry, looked up)": "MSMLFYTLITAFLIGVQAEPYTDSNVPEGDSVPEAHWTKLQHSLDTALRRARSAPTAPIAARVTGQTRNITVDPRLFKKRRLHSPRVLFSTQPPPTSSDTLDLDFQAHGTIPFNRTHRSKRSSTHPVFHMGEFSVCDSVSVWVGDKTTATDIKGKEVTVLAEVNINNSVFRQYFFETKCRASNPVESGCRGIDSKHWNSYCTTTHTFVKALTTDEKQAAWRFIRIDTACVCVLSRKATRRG", "assay": "Inhibition of mouse NGF binding to TrkA (unknown origin) by SPR method", "parameters": "species or system Homo sapiens"}, "[15]": {"molecular_target": "T1, High affinity nerve growth factor receptor", "assay": "Inhibition of mouse NGF binding to TrkA (unknown origin) by SPR method relative to control"}, "[16]": {"molecular_target": "T1, High affinity nerve growth factor receptor", "assay": "Inhibition of N-terminal GST tagged human TrkA cytoplasmic domain (436 to 790 amino acids) pre-incubated for 15 mins before peptide substrate addition for 180 mins by fluorescence based assay"}, "[17]": {"molecular_target": "T2, BDNF/NT-3 growth factors receptor", "assay": "Inhibition of N-terminal GST tagged human TrkB cytoplasmic domain (456 to 822 amino acids) pre-incubated for 15 mins before peptide substrate addition for 180 mins by fluorescence based assay"}, "[18]": {"system": "P-gp", "assay": "Binding affinity to P-gp (unknown origin) assessed as efflux ratio by cell based assay", "format": "ADME", "details": "human, not told"}}}
{"smiles": "COCCCc1cc(Cl)c(Cl)cc1NC(=O)Nc1c(C)c(-c2cnn(C)c2)nn1-c1ccccc1", "values": [{"measurement": "IC50", "setting": "[1]", "value": "< 0.1", "unit": "µM"}]}
{"smiles": "O=C(O)c1ccc(Nc2cc(N3CCN(C4CCCCC4)CC3)c3noc4c3c2C(=O)c2ccccc2-4)cc1", "values": [{"measurement": "IC50", "setting": "[2]", "value": 0.05, "unit": "µM"}, {"measurement": "IC50", "setting": "[3]", "value": "> 10", "unit": "µM"}, {"measurement": "IC50", "setting": "[4]", "value": "> 10", "unit": "µM"}]}
{"smiles": "COCc1ccc2cccc(NC(=O)Nc3c(C)c(-c4cnn(C)c4)nn3-c3ccccc3)c2c1", "values": [{"measurement": "IC50", "setting": "[1]", "value": "< 0.1", "unit": "µM"}, {"measurement": "inhibition", "setting": "[5]", "value": 91, "unit": "%"}]}
{"smiles": "CC(=O)NCc1ncc(NC(=O)c2ccc(C(F)(F)F)c(-c3ccn(C)n3)c2)c(-c2ccccc2)n1", "values": [{"measurement": "IC50", "setting": "[6]", "value": 0.004, "unit": "µM"}]}
{"smiles": "O=C1c2cccc3cc([N+](=O)[O-])cc(c23)C(=O)N1NCCO", "values": [{"measurement": "IC50", "setting": "[7]", "value": 5.88, "unit": "µM"}, {"measurement": "EC50", "setting": "[8]", "value": 22, "unit": "µM"}, {"measurement": "ED50", "setting": "[9]", "value": 38, "unit": "mg/kg"}, {"measurement": "ED50", "setting": "[10]", "value": 34.6, "unit": "µg"}, {"measurement": "ED50", "setting": "[11]", "value": 50, "unit": "µg"}, {"measurement": "IC50", "setting": "[12]", "value": "> 300", "unit": "µM"}, {"measurement": "Imax", "setting": "[13]", "value": 6.2, "unit": "%"}, {"measurement": "IC50", "setting": "[14]", "value": 149, "unit": "µM"}, {"measurement": "Imax", "setting": "[15]", "value": 44, "unit": "%"}]}
{"smiles": "Cc1cc2nc3c(=O)[nH]c(=O)nc-3n(C)c2cc1C=O", "values": [{"measurement": "IC50", "setting": "[12]", "value": 244, "unit": "µM"}, {"measurement": "Imax", "setting": "[13]", "value": 37, "unit": "%"}, {"measurement": "IC50", "setting": "[14]", "value": 33, "unit": "µM"}, {"measurement": "Imax", "setting": "[15]", "value": 100, "unit": "%"}]}
{"smiles": "Cn1c2ccc(NC(=O)c3ccccc3)cc2c(=O)n2nc(C(=O)O)cc12", "values": [{"measurement": "IC50", "setting": "[12]", "value": 110, "unit": "µM"}, {"measurement": "Imax", "setting": "[13]", "value": 65, "unit": "%"}, {"measurement": "IC50", "setting": "[14]", "value": 47, "unit": "µM"}, {"measurement": "Imax", "setting": "[15]", "value": 100, "unit": "%"}]}
{"smiles": "COc1ccc(COc2ccc(Cn3c(N)nc4cc(-c5cnn(C)c5)ccc43)cc2OC)cc1", "values": [{"measurement": "IC50", "setting": "[16]", "value": 0.0003, "unit": "µM"}, {"measurement": "IC50", "setting": "[17]", "value": 0.0003, "unit": "µM"}]}
{"smiles": "Cc1c(-c2cnn(C)c2)nn(-c2ccccc2)c1NC(=O)Nc1cc(C(F)(F)F)nn1-c1ccccc1", "values": [{"measurement": "IC50", "setting": "[1]", "value": "< 0.1", "unit": "µM"}]}
{"smiles": "Cn1c2c(N)cc(N)cc2c(=O)n2nc(C(=O)O)c([N+](=O)[O-])c12", "values": [{"measurement": "Imax", "setting": "[13]", "value": 70, "unit": "%"}]}
{"smiles": "Cc1c(-c2cnn(C)c2)nn(-c2ccccc2)c1NC(=O)Nc1sc(C(F)(F)F)nc1-c1ccccc1", "values": [{"measurement": "IC50", "setting": "[1]", "value": "< 0.1", "unit": "µM"}, {"measurement": "inhibition", "setting": "[5]", "value": 97, "unit": "%"}]}
{"smiles": "COc1ccc(C(=O)c2cn(C(C)C)c3ncnc(N)c23)cc1NC(=O)Nc1ccc(Cl)cc1Cl", "note": "[CE-245677]", "values": [{"measurement": "efflux ratio", "setting": "[18]", "value": 1}]}
